Reference: patent US20250052751A1, “COMPOSITIONS AND METHODS FOR DIAGNOSING AUTOIMMUNE AQUAPORINOPATHY” (The Regents of the University of California, priority 2023, published 2025)

Legend:
[1] = target: T1, MHC class II I-A^b molecules (Mus musculus, UniProt P14434+P14483); test: I-A^b affinity assay (competitive binding against a radiolabeled high-affinity peptide); conditions: purified I-A^b; for peptide binding affinity for I-A^b: unlabeled peptide vs radiolabeled high-affinity competitor peptide
T1 construct: made in house
T1 sequence (P14434 24-256): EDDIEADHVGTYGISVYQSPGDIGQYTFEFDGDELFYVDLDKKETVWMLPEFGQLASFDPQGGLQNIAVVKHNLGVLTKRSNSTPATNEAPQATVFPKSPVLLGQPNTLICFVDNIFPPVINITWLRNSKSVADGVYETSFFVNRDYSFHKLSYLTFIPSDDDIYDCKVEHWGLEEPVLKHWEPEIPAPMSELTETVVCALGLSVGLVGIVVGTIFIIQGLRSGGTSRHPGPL
T1 sequence (P14483 28-265): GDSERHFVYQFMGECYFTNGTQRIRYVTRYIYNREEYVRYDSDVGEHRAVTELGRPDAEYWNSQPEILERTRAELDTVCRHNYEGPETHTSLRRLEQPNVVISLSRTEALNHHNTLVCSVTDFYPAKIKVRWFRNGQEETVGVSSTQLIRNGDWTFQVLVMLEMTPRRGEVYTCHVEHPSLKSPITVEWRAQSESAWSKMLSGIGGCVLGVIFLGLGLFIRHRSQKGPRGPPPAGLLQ
Procedure: FIGS. 2A-2F. Pathogenic AQP4 determinants bind I-A^b with high affinity and elicit proliferation of AQP4: I-A^b-specific TCR-bearing T cells in AQP4-deficient mice. (FIG. 2A) WT or AQP4^−/− mice were immunized s.c. with peptides indicated. Peptide-specific proliferation of draining lymph node cells was measured by 3H-thymidine incorporation (mean±SEM, representative of five experiments). (FIG. 2B) Lymph node cells from AQP4 immunized WT or AQP4^−/− mice were cultured for 3 days with cognate antigen under Th17 polarizing conditions. AQP4 p133-149- and p202-218-specific Th17 cells from AQP4/donors induce paralysis in WT recipient mice. (FIG. 2C) IEDB, an in silico method for predicting determinants within proteins that bind MHC alleles, was used to identify AQP4 amino acid sequences anticipated to bind I-A^b for recognition by AQP4-specific/I-A^b-restricted CD4^+ T cells. 1/IC50 is plotted against the first amino acid for each overlapping AQP4 15 mer. Peaks correspond to increased predicted binding affinity. (FIG. 2D) Purified I-A^b molecules were tested biochemically for peptide binding affinity using a competitive binding assay between a radiolabeled high-affinity competitor peptide and unlabeled peptides (22). Lower IC50 values indicate higher binding affinity. Boxed amino acids designate the core binding regions. (FIGS. 2E-2F) Lymph node T cells isolated from WT or AQP4−/− mice immunized with AQP4 p133-149 or p202-218 were stained with I-A^b:p133-149 and […] tetramers, bead-enriched and analyzed by flow cytometry. […] Each data point represents one mouse. ****p<0.0001 (Mann Whitney U test).
Both AQP4 p133-149 and p202-218 are predicted to bind MHC II (I-A^b) with high affinity according to the Immune Epitope Database (IEDB) (FIG. 2C), an in silico method for predicting determinants within proteins that bind allele-specific MHC molecules for presentation to T cells (21). We have now examined AQP4 peptide affinity for I-A^b biochemically. I-A^b molecules that were purified by affinity chromatography were tested in a competitive binding assay between a radiolabeled high-affinity competitor peptide and unlabeled peptides (22). Indeed, peptides containing the two pathogenic AQP4 T cell determinants bound I-A^b with higher affinity than the nonpathogenic AQP4 p24-35 T cell epitope or MOG p35-55 (FIG. 2D).
I-A^b affinity Assay. Purification of MHC class II I-A^b molecules by affinity chromatography, and the performance of assays based on the inhibition of binding of a high affinity radiolabeled peptide to quantitatively measure peptide binding, were performed as described (22). Lower IC50 values indicate higher binding affinity. Excellent binders have affinities less than 100 nM and good binders have affinities less than 1000 nM.

[2] = test system: Foxn1cre-AQP4^fl/fl mice; test: CNS autoimmunity by direct peptide immunization; type: in vivo, mouse
[3] = test system: WT, RAG1^−/−, TCRa^−/− and JHT recipient mice; test: Adoptive transfer of Th17-polarized peptide-specific T cells, clinical and histologic CNS disease; type: in vivo, mouse
Description: FIGS. 5A-5B. Pathogenic AQP4-specific Th17 cells induce sustained CNS autoimmune disease in T cell-deficient mice. (FIG. 5A) Th17-polarized AQP4 p133-149-specific T cells from AQP4−/− mice were transferred into WT, T cell- and B cell-deficient (T cell-/B cell-, RAG1^−/−), T cell-deficient (T cell-, TCRa^−/−) and B cell-deficient (B cell-, JHT) recipient mice then scored for clinical disease. Donor Th17-polarized MOG p35-55-specific T cells were transferred into WT recipient mice as a control. Results are representative of four experiments (n=5 per group). (FIG. 5B) Recipient mice were evaluated for histologic evidence of meningeal and CNS parenchymal inflammation (H&E). Results are representative of two experiments (2-4 mice/group/time-point/experiment).
CNS autoimmune disease induction and analysis. For adoptive induction of CNS disease with primary lymphocytes, mice were immunized s.c. with 100 μg AQP4 or MOG peptides in CFA containing 400 μg M. tuberculosis H37Ra (Difco Laboratories). After 10-12 days, lymph node cells were cultured with 15 μg/ml antigen for 3 days with 20 ng/ml IL-23 and 10 ng/ml IL-6, under Th17 polarizing conditions. 2×10^7 cells were injected i.v. into naïve recipients, which then received 200 ng B. pertussis toxin (Ptx) (List Biological) i.p. on days 0 and 2. Clinical scores: 0=no disease, 1=tail tone loss, 2=impaired righting, 3=severe paraparesis or paraplegia, 4=quadraparesis, and 5=moribund or death.
For induction of CNS disease by I-A^b:AQP4 tet-sorted cells targeted cells, primary lymph node cells from AQP4 or WT mice were restimulated with […] antigen and irradiated splenocytes every 10 days. Percent tetramer binding was monitored by flow cytometry. In preparation for adoptive transfer, cells were washed and cultured with 1:10 T cell-to-irradiated splenocytes under polarizing conditions for 3 days. CD4^+ cells were negatively sorted using magnetic beads (Miltenyi). 5×10^6 were transferred to TCRa^−/− recipients. 200 ng Ptx was given on days 0 and 2.
Histopathology. Brain, spinal cord, optic nerve, kidney and muscle tissue samples were fixed in 10% neutral-buffered formalin, paraffin-embedded, sectioned and stained with H&E. Meningeal and parenchymal inflammatory lesions and areas of demyelination were assessed in a blinded manner as described (39).

[4] = donor Th17 cells from AQP4^−/− mice, recipient WT and JHT mice

Row | Sequence | peptide binding affinity for I-A^b [1] | CNS autoimmunity by immunization [2] | CNS autoimmunity after transfer of tet^+-sorted T cells ([3]; I-A^b:AQP4 p133-149 tet^+-sorted T cells from immunized AQP4^−/− mice) | clinical and histologic CNS disease after transfer of peptide-specific Th17 cells ([3]; WT recipient mice) | onset of paralysis after transfer [3, 4] | time from onset to complete recovery [3, 4] | clinical and histologic CNS disease after transfer of peptide-specific Th17 cells ([3]; recipient RAG1^−/− and TCRa^−/− mice) | CNS inflammation (H&E) ([3]; recipient WT and JHT mice, day 21) | I-A^b binding affinity relative to MOG p35-55 ([1]; competitive binding assay) | peptide binding affinity for I-A^b ([1]; listed as p202-218)
1 | LYLVTPPSVVGGLGVT [AQP4 p133-149] | bound I-A^b avidly | resistant to CNS autoimmunity | transferred CNS autoimmunity to WT mice | capable of inducing paralysis and CNS inflammation in WT mice | ~7 days | 4 to 5 days | persistent paralysis and CNS inflammation | no longer evident after recovery | – | –
2 | LFAINYTGASMNPARSF [AQP4 p202-218] | highest affinity among peptides examined in this report | – | – | capable of inducing paralysis and CNS inflammation in WT mice | – | – | – | – | more than ten times greater affinity than MOG p35-55 | bound I-A^b avidly
